Assay results published in US20050019372A1, “Modified-fat nutritional products useful preventing or treating obesity” (priority 2001, published 2005).
Like-named read-outs stand apart in the source and are kept apart here.

Key:
[1] = 6 h intravenous infusion of octanoic acid, cited from earlier work
[2] = test system: 3T3-L1 adipocytes; test: Partitioning of [1-14C]FFA between CO2 production and TG incorporation; type: cell-based
Description: Partitioning of [1-^14C]FFA between CO2production7 and TG incorporation. 3T3-L1 cells were prepared in T25 culture flasks. […] The incubation was terminated after 60 min. ^14CO2 released from fatty acid oxidation was collected and quantified using a published protocol. The cellular lipids were extracted and separated by TLC. The TG fraction was scraped off and dissolved in Ecosin-A solution for scintillation counting. […] Cellular DNA was measured in parallel cultures.

[3] = test system: 3T3L1 fat cells; test: TG storage and plasma membrane phospholipid fatty acid composition, oleate/linoleate with octanoate; type: cell-based
Description: This reduced the cellular TG storage from 41.5 to 27.0 μg/μgDNA. The fatty acid composition in the plasma membrane phospholipids (FIG. 15) was less drastically affected by exogenous fatty acids than that in the TG fraction (FIG. 14).

[4] = test system: 3T3-L1 adipocytes; test: 13C-NMR incorporation of [1-13C]FFA into cellular TG; type: cell-based
Description: Incubation with [1-^13C]FFA. […] At termination, cells were washed three times with an ice-cold solution (pH 7.4) containing sucrose (250 mM), Tris (10 mM) and 2-mercaptoethanol (1 mM), scraped into the above solution containing additional EDTA (0.2 mM) and homogenized. Aliquots of the homogenate were stored at −80° C. for DNA and TG analysis. Aliquots for glycerol-3-phosphate dehydrogenase (G3PD) analysis were centrifuged at 44000 g for 20 min and the supernatants were stored at −80° C. until analysis. The homogenates were then extracted for lipids for NMR studies as described previously.
Quantification of ^13C label incorporation into cellular TG from the NMR peak intensity. The ^13C-NMR spectra were obtained at 125 MHz on a Bruker DMX-500 spectrometer with a 5-mm triple resonance probe (Bilerica, Mass., U.S.A.). Other details have been described in our previous reports. The absolute intensities of ^13C═O signals were measured by reference to an internal standard. […] For cells incubated with [1-^13C]octanoate, the signals from direct incorporation of [1-^13C]octanoate were less intense than the C═O signals from unlabelled TG (FIG. 1B; signals from unlabelled saturated acyl chains overlapped those of esterified [1-^13C]octanoate, but were generally 30-40% of their unsaturated counterparts in control cultures). Therefore, the signal intensity from direct incorporation of [1-^13C]octanoate was obtained by subtracting the background signal from control. This may not be completely accurate when octanoate incorporation is very limited.

[5] = test system: 3T3-L1 cells; test: Fatty acid induced differentiation (cellular TG content, G3PD activity), no MDI; type: cell-based; settings: for G3PD / TG: basal medium with insulin 2.5 μg/ml, no MDI, means ± S.E.M., n=3
Description: Fatty acid induced differentiation. […] The 5:1 molar ratio of FFA/BSA promotes net transfer of FFA from BSA-binding sites to cells. No MDI treatment was applied to these cultures.
Measurement of total cellular DNA, TG and G3PD activity. […] G3PD was measured by following the disappearance of NADH during enzyme-catalysed dihydroxyacetone phosphate reduction under zero-order conditions.

[6] = test system: 3T3-L1 fat cells; test: Basal lipolysis and turnover of esterified fatty acids (glycerol release, NMR, GLC); type: cell-based; settings: for 8:0 acyl chains in cellular TG: means ± S.E.M.
Description: Measurement of basal lipolysis. […] Control cultures were terminated at this time, and cells were homogenated for TG and DNA analysis. After aliquots were taken for these analyses, cellular lipids were extracted for NMR and GLC analysis. Parallel cultures were washed three times with PBS solution and incubated with serum-free DMEM containing 1% BSA, conditions that favour basal lipolysis. At the end of the incubation, media were aspirated and assayed for glycerol (Sigma procedure no. 337A [27]), and the cells were harvested for analysis as described above.
Quantification of ^13C label incorporation into cellular TG from the NMR peak intensity. The ^13C-NMR spectra were obtained at 125 MHz on a Bruker DMX-500 spectrometer with a 5-mm triple resonance probe (Bilerica, Mass., U.S.A.). Other details have been described in our previous reports. The absolute intensities of ^13C═O signals were measured by reference to an internal standard. […] Therefore, the signal intensity from direct incorporation of [1-^13C]octanoate was obtained by subtracting the background signal from control.
Methylation of TG and GLC analysis of fatty acyl composition. The lipid components of cell extracts were separated by TLC (hexane/ethyl ether/acetic acid, 70:30:1). Methylation was performed by incubation in BF3-methanol solution (14%, v/v, BF3 in methanol) at 60° C. for 30 min. The fatty acid methyl ester was extracted into a hexane solution. The hexane solution was dried with anhydrous sodium sulphate. To avoid the evaporation of methyl octanoate, the hexane solution was used directly for GLC study without further condensation. GLC analysis was performed on a Shimuzu 14A gas chromatograph with a Supelco SP™-2380 capillary column with an initial oven temperature of 150° C., final temperature of 240° C., heating rate of 4° C./min, injector temperature of 220° C. and detector temperature of 240° C. Carrier gas (He) was at 50 kPa, make-up carrier gas (He) at 100 kPa, hydrogen gas at 55 kPa and compressed air at 50 kPa. The sample was injected in 1-1.5 μl with splitting rate of 1:25.

[7] = 60 min, 1 mM fatty acid in 0.2 mM BSA, means ± S.E.M., n=3
[8] = replacement of 20% oleate by octanoate
[9] = After 96 h incubation with DMEM (1% BSA)
[10] = Before 96 h incubation with DMEM (1% BSA)

CCCCCCCC(=O)O [Octanoate, octanoate]
Octanoate recovered as CO2 ([1]; fasted rats): ≤ 90% | Octanoate recovered as CO2 ([1]; fed rats): up to 82% | Actual amount of CO2 produced from octanoate relative to exogenous oleate ([2]; 8 vs 18 CO2 per acyl chain): about 3 fold | Exogenous fatty acid converted into CO2 [2, 7]: 8.4 ± 1.2 nmol/h per μg of DNA | Exogenous fatty acid converted into TG [2, 7]: 0.9 ± 0.1 nmol/h per μg of DNA | Cellular TG storage ([3]; oleate/linoleate, without or with 20% (wt %) of oleate replaced by octanoate): 27.0 μg/μgDNA | Decrease in MUFA in plasma membrane phospholipids [3, 8]: ~15% | Increase in PUFA in plasma membrane phospholipids [3, 8]: ~20% | Increase in SFA in plasma membrane phospholipids [3, 8]: ~10% | Peak intensity ratio TG(1,3)/TG(2) ([4]; 2.0 = random access to the three glycerol carbons): higher than 2.0 | Octanoate share of total acyl chains stored, molar scale ([4]; converted to a molar scale): 20% | Amount partitioned into de novo synthesis of LCFA ([4]; detected by 13C-NMR): less than 16% | Saturated octanoate incorporation, share of total fatty acids stored ([4]; fat cells): about 10% | Time at which accumulation into TG reached a plateau ([4]; within a 24-h period): 7 h | G3PD ([5]; Day 6): 0.09 ± 0.01 nmol/min per μg of DNA | TG ([5]; Day 6): 0.1 ± 0.02 μg/μg of DNA | G3PD ([5]; Day 9): 0.2 ± 0.01 nmol/min per μg of DNA | TG ([5]; Day 9): 0.6 ± 0.04 μg/μg of DNA | Cell loss after extended fatty acid incubation ([5]; microscopy, corroborated by DNA analysis): less significant | Time after incubation at which lipid droplets began to appear ([5]; undifferentiated cells, not treated with MDI): 6 days | Absolute amount of octanoate remaining in TG, of original amount ([6]; 96 h, total TG content doubled): about 20% | 14:0 acyl chains in cellular TG [6, 9]: 3.88 ± 0.21% | 14:1 acyl chains in cellular TG [6, 9]: 5.78 ± 0.11% | 15:0 acyl chains in cellular TG [6, 9]: 1.63 ± 0.17% | 15:1 acyl chains in cellular TG [6, 9]: 1.41 ± 0.09% | 16:0 acyl chains in cellular TG [6, 9]: 24.45 ± 0.03% | 16:1 acyl chains in cellular TG [6, 9]: 47.64 ± 0.34% | 17:0 acyl chains in cellular TG [6, 9]: 0.85 ± 0.096% | 17:1 acyl chains in cellular TG [6, 9]: 4.73 ± 0.12% | 18:0 acyl chains in cellular TG [6, 9]: 0.51 ± 0.16% | 18:1 n9 acyl chains in cellular TG [6, 9]: 6.2 ± 0.29% | 18:1 n11 acyl chains in cellular TG [6, 9]: 1.95 ± 0.13% | 8:0 acyl chains in cellular TG ([6]; After 96 h incubation with DMEM (1% BSA), n=3): 0.99 ± 0.05% | 14:0 acyl chains in cellular TG [6, 10]: 3.74 ± 0.04% | 14:1 acyl chains in cellular TG [6, 10]: 5.56 ± 0.29% | 15:0 acyl chains in cellular TG [6, 10]: 1.43 ± 0.14% | 15:1 acyl chains in cellular TG [6, 10]: 1.4 ± 0.14% | 16:0 acyl chains in cellular TG [6, 10]: 24.62 ± 0.35% | 16:1 acyl chains in cellular TG [6, 10]: 38.61 ± 0.2% | 17:0 acyl chains in cellular TG [6, 10]: 0.9 ± 0.03% | 17:1 acyl chains in cellular TG [6, 10]: 3.89 ± 0.1% | 18:0 acyl chains in cellular TG [6, 10]: 0.49 ± 0.02% | 18:1 n9 acyl chains in cellular TG [6, 10]: 6.69 ± 0.09% | 18:1 n11 acyl chains in cellular TG [6, 10]: 2.34 ± 0.05% | 8:0 acyl chains in cellular TG ([6]; Before 96 h incubation with DMEM (1% BSA), n=3): 10.33 ± 0.3% | [1-13C]fatty acid remaining esterified in TG ([6]; after 96-h incubation with DMEM, NMR, ±S.E.M., n=3): About 21±1.2% | Proportion of octanoate in total stored fatty acids ([6]; after 96-h incubation with DMEM, n=3): about 1±0.1% | Octanoate incorporation, share of total acyl composition ([6]; before incubation with DMEM, n=3): 10±0.9%
